Source: ChEMBL document CHEMBL4613209, “Quinolone hybrids and their anti-cancer activities: An overview” (Eur J Med Chem, 2019)
pIC50: −log10 of the molar value.

Test system: SW480
Assay: Cytotoxicity against human SW480 cells assessed as reduction in cell viability by MTT assay
Type: functional, cell-based
Details: not given

SMILES | pIC50
O=C(O)c1cn(C2CC2)c2cc(N3CCNCC3)c(F)cc2c1=O [CIPROFLOXACIN] | 3.62 to 3.86
CCn1cc(C(=O)O)c(=O)c2cc(F)c(N3CCNCC3)cc21 [NORFLOXACIN] | 3.62 to 3.86

Test system: MCF7
Assay: Cytotoxicity against human MCF7 cells assessed as reduction in cell viability by MTT assay
Type: functional, cell-based
Details: not given

SMILES | pIC50
O=C(O)c1cn(C2CC2)c2cc(N3CCNCC3)c(F)cc2c1=O [CIPROFLOXACIN] | < 4.00
CCn1cc(C(=O)O)c(=O)c2cc(F)c(N3CCNCC3)cc21 [NORFLOXACIN] | 3.62 to 3.86

Test system: SK-MEL3
Assay: Cytotoxicity against human SK-MEL-3 cells assessed as reduction in cell viability by MTT assay
Type: functional, cell-based
Details: not given

SMILES | pIC50
O=C(O)c1cn(C2CC2)c2cc(N3CCNCC3)c(F)cc2c1=O [CIPROFLOXACIN] | 3.62 to 3.86
CCn1cc(C(=O)O)c(=O)c2cc(F)c(N3CCNCC3)cc21 [NORFLOXACIN] | 3.62 to 3.86

Test system: L1210
Assay: Antiproliferative activity against mouse L1210 cells by MTT assay
Type: functional, cell-based
Details: not given

SMILES | pIC50
COc1ccccc1C1=NN=C2C(F)=Cc3c(n(C4CC4)cc(C(=O)O)c3=O)N2C1 | 4.31 to 6.00
O=C(O)c1cn(C2CC2)c2c(c1=O)C=C(F)C1=NN=C(c3ccc(Cl)cc3)CN12 | 4.31 to 6.00
Cc1ccccc1C1=NN=C2C(F)=Cc3c(n(C4CC4)cc(C(=O)O)c3=O)N2C1 | 4.31 to 6.00
COc1ccc(C2=NN=C3C(F)=Cc4c(n(C5CC5)cc(C(=O)O)c4=O)N3C2)cc1 | 4.31 to 6.00
O=C(O)c1cn(C2CC2)c2c(c1=O)C=C(F)C1=NN=C(c3ccc(F)cc3)CN12 | 4.31 to 6.00
O=C(O)c1cn(C2CC2)c2c(c1=O)C=C(F)C1=NN=C(c3ccccc3F)CN12 | 4.31 to 6.00
O=C(O)c1cn(C2CC2)c2cc(N3CCNCC3)c(F)cc2c1=O [CIPROFLOXACIN] | ≤ 4.00
Cc1ccc(C2=NN=C3C(F)=Cc4c(n(C5CC5)cc(C(=O)O)c4=O)N3C2)cc1 | 4.31 to 6.00
O=C(O)c1cn(C2CC2)c2c(c1=O)C=C(F)C1=NN=C(c3ccccc3)CN12 | 4.31 to 6.00
O=C(O)c1cn(C2CC2)c2c(c1=O)C=C(F)C1=NN=C(c3ccc(O)cc3)CN12 | 4.31 to 6.00
O=C(O)c1cn(C2CC2)c2c(c1=O)C=C(F)C1=NN=C(c3cccc(Cl)c3)CN12 | 4.31 to 6.00
COc1ccc(C2=NN=C3C(F)=Cc4c(n(C5CC5)cc(C(=O)O)c4=O)N3C2)cc1OC | 4.31 to 6.00
O=C(O)c1cn(C2CC2)c2c(c1=O)C=C(F)C1=NN=C(c3ccc([N+](=O)[O-])cc3)CN12 | 5.46
Nc1ccc(C2=NN=C3C(F)=Cc4c(n(C5CC5)cc(C(=O)O)c4=O)N3C2)cc1 | 4.31 to 6.00
O=C(O)c1cn(C2CC2)c2c(c1=O)C=C(F)C1=NN=C(c3cccc([N+](=O)[O-])c3)CN12 | 5.49
O=C(O)c1cn(C2CC2)c2c(c1=O)C=C(F)C1=NN=C(c3ccc(Br)cc3)CN12 | 4.31 to 6.00

Test system: SMMC-7721
Assay: Antiproliferative activity against human SMMC7721 cells by MTT assay
Type: functional, cell-based
Details: not given

SMILES | pIC50
COc1ccccc1C1=NN=C2C(F)=Cc3c(n(C4CC4)cc(C(=O)O)c3=O)N2C1 | 4.31 to 6.00
O=C(O)c1cn(C2CC2)c2c(c1=O)C=C(F)C1=NN=C(c3ccc(Cl)cc3)CN12 | 4.31 to 6.00
Cc1ccccc1C1=NN=C2C(F)=Cc3c(n(C4CC4)cc(C(=O)O)c3=O)N2C1 | 4.31 to 6.00
COc1ccc(C2=NN=C3C(F)=Cc4c(n(C5CC5)cc(C(=O)O)c4=O)N3C2)cc1 | 4.31 to 6.00
O=C(O)c1cn(C2CC2)c2c(c1=O)C=C(F)C1=NN=C(c3ccc(F)cc3)CN12 | 4.31 to 6.00
O=C(O)c1cn(C2CC2)c2c(c1=O)C=C(F)C1=NN=C(c3ccccc3F)CN12 | 4.31 to 6.00
O=C(O)c1cn(C2CC2)c2cc(N3CCNCC3)c(F)cc2c1=O [CIPROFLOXACIN] | ≤ 4.00
Cc1ccc(C2=NN=C3C(F)=Cc4c(n(C5CC5)cc(C(=O)O)c4=O)N3C2)cc1 | 4.31 to 6.00
O=C(O)c1cn(C2CC2)c2c(c1=O)C=C(F)C1=NN=C(c3ccccc3)CN12 | 4.31 to 6.00
O=C(O)c1cn(C2CC2)c2c(c1=O)C=C(F)C1=NN=C(c3ccc(O)cc3)CN12 | 4.31 to 6.00
O=C(O)c1cn(C2CC2)c2c(c1=O)C=C(F)C1=NN=C(c3cccc(Cl)c3)CN12 | 4.31 to 6.00
COc1ccc(C2=NN=C3C(F)=Cc4c(n(C5CC5)cc(C(=O)O)c4=O)N3C2)cc1OC | 4.31 to 6.00
O=C(O)c1cn(C2CC2)c2c(c1=O)C=C(F)C1=NN=C(c3ccc([N+](=O)[O-])cc3)CN12 | 6.00
Nc1ccc(C2=NN=C3C(F)=Cc4c(n(C5CC5)cc(C(=O)O)c4=O)N3C2)cc1 | 4.31 to 6.00
O=C(O)c1cn(C2CC2)c2c(c1=O)C=C(F)C1=NN=C(c3cccc([N+](=O)[O-])c3)CN12 | 5.80
O=C(O)c1cn(C2CC2)c2c(c1=O)C=C(F)C1=NN=C(c3ccc(Br)cc3)CN12 | 4.31 to 6.00

Test system: A549
Assay: Antiproliferative activity against human A549 cells after 72 hrs by MTT assay
Type: functional, cell-based
Details: A549, 72 h

SMILES | pIC50
O=C(O)c1cn(C2CC2)c2cc(N3CCNCC3)c(F)cc2c1=O [CIPROFLOXACIN] | < 6.52
CCn1cc(C(=O)O)c(=O)c2cc(F)c(N3CCNCC3)cc21 [NORFLOXACIN] | < 6.52

Test system: SMMC-7721
Assay: Cytotoxicity against human SMMC7721 cells assessed as reduction in cell viability by MTT assay
Type: functional, cell-based
Details: not given

SMILES | pIC50
O=C(O)c1cn(C2CC2)c2cc(N3CCNCC3)c(F)cc2c1=O [CIPROFLOXACIN] | 3.62 to 3.86

Test system: HL-60
Assay: Cytotoxicity against human HL60 cells assessed as reduction in cell viability by MTT assay
Type: functional, cell-based
Details: not given

SMILES | pIC50
O=C(O)c1cn(C2CC2)c2cc(N3CCNCC3)c(F)cc2c1=O [CIPROFLOXACIN] | < 4.00

Test system: L1210
Assay: Cytotoxicity against mouse L1210 cells assessed as reduction in cell viability by MTT assay
Type: functional, cell-based
Details: not given

SMILES | pIC50
O=C(O)c1cn(C2CC2)c2cc(N3CCNCC3)c(F)cc2c1=O [CIPROFLOXACIN] | < 4.00

Test system: CAPAN-1
Assay: Cytotoxicity against human Capan1 cells assessed as reduction in cell viability by MTT assay
Type: functional, cell-based
Details: not given

SMILES | pIC50
O=C(O)c1cn(C2CC2)c2cc(N3CCNCC3)c(F)cc2c1=O [CIPROFLOXACIN] | < 4.00

Test system: HL-60
Assay: Antiproliferative activity against human HL60 cells after 72 hrs by MTT assay
Type: functional, cell-based
Details: HL-60, 72 h

SMILES | pIC50
O=C(O)c1cn(C2CC2)c2cc(N3CCNCC3)c(F)cc2c1=O [CIPROFLOXACIN] | < 6.52
CCn1cc(C(=O)O)c(=O)c2cc(F)c(N3CCNCC3)cc21 [NORFLOXACIN] | < 6.52

Test system: Hep 3B2
Assay: Cytotoxicity against human Hep3B cells assessed as reduction in cell viability by MTT assay
Type: functional, cell-based
Details: not given

SMILES | pIC50
O=C(O)c1cn(C2CC2)c2cc(N3CCNCC3)c(F)cc2c1=O [CIPROFLOXACIN] | < 4.00

Test system: CHO
Assay: Cytotoxicity against CHO cells assessed as reduction in cell viability
Type: functional, cell-based
Details: Cricetulus griseus

SMILES | pIC50
O=C(O)c1cn(C2CC2)c2cc(N3CCNCC3)c(F)cc2c1=O [CIPROFLOXACIN] | < 3.82

Test system: HL-60
Assay: Antiproliferative activity against human HL60 cells by MTT assay
Type: functional, cell-based
Details: not given

SMILES | pIC50
COc1ccccc1C1=NN=C2C(F)=Cc3c(n(C4CC4)cc(C(=O)O)c3=O)N2C1 | 4.31 to 6.00
O=C(O)c1cn(C2CC2)c2c(c1=O)C=C(F)C1=NN=C(c3ccc(Cl)cc3)CN12 | 4.31 to 6.00
Cc1ccccc1C1=NN=C2C(F)=Cc3c(n(C4CC4)cc(C(=O)O)c3=O)N2C1 | 4.31 to 6.00
COc1ccc(C2=NN=C3C(F)=Cc4c(n(C5CC5)cc(C(=O)O)c4=O)N3C2)cc1 | 4.31 to 6.00
O=C(O)c1cn(C2CC2)c2c(c1=O)C=C(F)C1=NN=C(c3ccc(F)cc3)CN12 | 4.31 to 6.00
O=C(O)c1cn(C2CC2)c2c(c1=O)C=C(F)C1=NN=C(c3ccccc3F)CN12 | 4.31 to 6.00
O=C(O)c1cn(C2CC2)c2cc(N3CCNCC3)c(F)cc2c1=O [CIPROFLOXACIN] | ≤ 4.00
Cc1ccc(C2=NN=C3C(F)=Cc4c(n(C5CC5)cc(C(=O)O)c4=O)N3C2)cc1 | 4.31 to 6.00
O=C(O)c1cn(C2CC2)c2c(c1=O)C=C(F)C1=NN=C(c3ccccc3)CN12 | 4.31 to 6.00
O=C(O)c1cn(C2CC2)c2c(c1=O)C=C(F)C1=NN=C(c3ccc(O)cc3)CN12 | 4.31 to 6.00
O=C(O)c1cn(C2CC2)c2c(c1=O)C=C(F)C1=NN=C(c3cccc(Cl)c3)CN12 | 4.31 to 6.00
COc1ccc(C2=NN=C3C(F)=Cc4c(n(C5CC5)cc(C(=O)O)c4=O)N3C2)cc1OC | 4.31 to 6.00
O=C(O)c1cn(C2CC2)c2c(c1=O)C=C(F)C1=NN=C(c3ccc([N+](=O)[O-])cc3)CN12 | 4.31 to 6.00
Nc1ccc(C2=NN=C3C(F)=Cc4c(n(C5CC5)cc(C(=O)O)c4=O)N3C2)cc1 | 4.31 to 6.00
O=C(O)c1cn(C2CC2)c2c(c1=O)C=C(F)C1=NN=C(c3cccc([N+](=O)[O-])c3)CN12 | 4.31 to 6.00
O=C(O)c1cn(C2CC2)c2c(c1=O)C=C(F)C1=NN=C(c3ccc(Br)cc3)CN12 | 4.31 to 6.00

Test system: HL-60
Assay: Cytotoxicity against human HL60 cells assessed as reduction in cell viability
Type: functional, cell-based
Details: not given

SMILES | pIC50
O=C(O)c1cn(C2CC2)c2cc(N3CCNCC3)c(F)cc2c1=O [CIPROFLOXACIN] | < 3.82

Test system: EJ
Assay: Cytotoxicity against human EJ cells assessed as reduction in cell viability by MTT assay
Type: functional, cell-based
Details: not given

SMILES | pIC50
O=C(O)c1cn(C2CC2)c2cc(N3CCNCC3)c(F)cc2c1=O [CIPROFLOXACIN] | 3.62 to 3.86
CCn1cc(C(=O)O)c(=O)c2cc(F)c(N3CCNCC3)cc21 [NORFLOXACIN] | 3.62 to 3.86

Test system: A-431
Assay: Cytotoxicity against human A431 cells assessed as reduction in cell viability by MTT assay
Type: functional, cell-based
Details: not given

SMILES | pIC50
O=C(O)c1cn(C2CC2)c2cc(N3CCNCC3)c(F)cc2c1=O [CIPROFLOXACIN] | 3.62 to 3.86
CCn1cc(C(=O)O)c(=O)c2cc(F)c(N3CCNCC3)cc21 [NORFLOXACIN] | 3.62 to 3.86

Test system: L1210
Assay: Cytotoxicity against mouse L1210 cells assessed as reduction in cell viability
Type: functional, cell-based
Details: not given

SMILES | pIC50
O=C(O)c1cn(C2CC2)c2cc(N3CCNCC3)c(F)cc2c1=O [CIPROFLOXACIN] | < 3.82
